Read-outs that look alike come from different tables or passages of the source.
Test: Solubility of abrasive-grain material at normal temperature
Type: physicochemical
[1] = abrasive-grain material, normal temperature (25° C.)

Compound	Solubility [1] [%]	Solubility [%]
O=S(=O)([O-])[O-].O=S(=O)([O-])[O-].O=S(=O)([O-])[O-].[Ce+3].[Ce+3] [Example 4, Ce2(SO4)3]	7.59	–
[Cl][Cu][Cl] [Example 5, CuCl2]	42.8	–
O=S(=O)([O-])[O-].[Cu+2] [Example 6, CuSO4]	–	18.2
OC[C@H]1O[C@@](CO)(O[C@H]2O[C@H](CO)[C@@H](O)[C@H](O)[C@H]2O)[C@@H](O)[C@@H]1O [Example 11, sucrose]	67.0	–
O=C(O)CC(=O)O [Example 12, malonic acid]	32.2	–
